# Laboratory results as given in patent US11345912B2, “Directed evolution of multivalent glycopeptides that tightly bind to target proteins” (Brandeis University, priority 2013, dated 2022).
# Target: 2G12
# Assay: BioLayer Interferometry (BLI) of 2G12 binding to surface-immobilized synthetic glycopeptide
# Settings: Table 6; evaluated by BLI, material prepared synthetically
# Experimental: Biotinylation of 10F2 glycopeptide and determination of 2G12 binding by BLI (BioLayer Interferometry): 200 μg 10F2 glycopeptide in 5.5 μL water was treated with […] of 50 mM TCEP.HCl/1M Tris-HCl buffer, pH 7.8, under argon, using the same inert gas setup employed in the click procedure. After 4.5 h, the reaction mixture was injected into HPLC (Waters Symmetry, 300 C4, 5 μm, 4.6×250 mm, 1 mL/min, 2-42% over 60 min, retention time 46.8 min).
# The 2G12 binding of the resulting biotinylated glycopeptide 3 was determined using a BLItz instrument (Fortebio). Biotin-10F2 was loaded (120 sec) onto a streptavidin biosensor as a 500 nM solution in Buffer 1 (20 mM Tris pH 7.5, 150 mM NaCl, 2 mM MgSO4, 0.20 mg/mL BSA, 0.02% Tween-20). The sensor was washed with Buffer 1 for 60 sec, after which time the net response due to loading was observed as 0.2 nm. The sensor was then equilibrated with Buffer 2 (20 mM Tris pH 7.5, 150 mM NaCl, 2 mM MgSO4, 2.0 mg/mL BSA, 0.1% v/v Tween-20) for 90 sec. 2G12 (prepared in Buffer 2) was associated at several concentrations (0.5, 1, 2, 4, 8, 16, 32 nM, in random order) for 600 sec, followed by dissociation into blank Buffer 2 for 600 sec. […]
smiles,measurement,value
"CC[C@H](C)[C@H](NC(=O)[C@@H](NC(=O)[C@@H](NC(=O)[C@H](Cc1c[nH]cn1)NC(=O)[C@H](CC(N)=O)NC(=O)[C@H](CC(=O)O)NC(=O)[C@H](CCc1cn(C2CCC(OC3O[C@H](CO[C@H]4O[C@H](CO[C@H]5O[C@H](CO)[C@@H](O)[C@H](O)[C@@H]5O[C@H]5O[C@H](CO)[C@@H](O)[C@H](O)[C@@H]5O)[C@@H](O)[C@H](O[C@H]5O[C@H](CO)[C@@H](O)[C@H](O)[C@@H]5O[C@H]5O[C@H](CO)[C@@H](O)[C@H](O)[C@@H]5O)[C@@H]4O)[C@@H](O)[C@H](O[C@H]4O[C@H](CO)[C@@H](O)[C@H](O)[C@@H]4O[C@H]4O[C@H](CO)[C@@H](O)[C@H](O)[C@@H]4O[C@H]4O[C@H](CO)[C@@H](O)[C@H](O)[C@@H]4O)[C@@H]3O)CC2)nn1)NC(=O)[C@@H](NC(=O)[C@H](CCCCN)NC(=O)[C@H](CCC(=O)O)NC(=O)[C@H](CCCNC(=N)N)NC(=O)[C@H](CCCCN)NC(=O)[C@H](CO)NC(=O)[C@H](CC(N)=O)NC(=O)[C@@H](NC(=O)[C@H](CCCCN)NC(=O)[C@@H](NC(=O)[C@H](C)NC(=O)[C@H](CCc1cn(C2CCC(OC3O[C@H](CO[C@H]4O[C@H](CO[C@H]5O[C@H](CO)[C@@H](O)[C@H](O)[C@@H]5O[C@H]5O[C@H](CO)[C@@H](O)[C@H](O)[C@@H]5O)[C@@H](O)[C@H](O[C@H]5O[C@H](CO)[C@@H](O)[C@H](O)[C@@H]5O[C@H]5O[C@H](CO)[C@@H](O)[C@H](O)[C@@H]5O)[C@@H]4O)[C@@H](O)[C@H](O[C@H]4O[C@H](CO)[C@@H](O)[C@H](O)[C@@H]4O[C@H]4O[C@H](CO)[C@@H](O)[C@H](O)[C@@H]4O[C@H]4O[C@H](CO)[C@@H](O)[C@H](O)[C@@H]4O)[C@@H]3O)CC2)nn1)NC=O)[C@@H](C)O)[C@@H](C)O)[C@@H](C)O)C(C)C)[C@@H](C)O)C(=O)N[C@@H](CCc1cn(C2CCC(OC3O[C@H](CO[C@H]4O[C@H](CO[C@H]5O[C@H](CO)[C@@H](O)[C@H](O)[C@@H]5O[C@H]5O[C@H](CO)[C@@H](O)[C@H](O)[C@@H]5O)[C@@H](O)[C@H](O[C@H]5O[C@H](CO)[C@@H](O)[C@H](O)[C@@H]5O[C@H]5O[C@H](CO)[C@@H](O)[C@H](O)[C@@H]5O)[C@@H]4O)[C@@H](O)[C@H](O[C@H]4O[C@H](CO)[C@@H](O)[C@H](O)[C@@H]4O[C@H]4O[C@H](CO)[C@@H](O)[C@H](O)[C@@H]4O[C@H]4O[C@H](CO)[C@@H](O)[C@H](O)[C@@H]4O)[C@@H]3O)CC2)nn1)C(=O)N[C@@H](CCCNC(=N)N)C(=O)N[C@@H](CO)C(=O)N[C@H](C(=O)N1CCC[C@H]1C(=O)N[C@@H](Cc1c[nH]c2ccccc12)C(=O)N[C@@H](Cc1ccc(O)cc1)C(=O)N[C@H](C(=O)N[C@@H](Cc1ccc(O)cc1)C(=O)N[C@@H](CCCNC(=N)N)C(=O)N[C@@H](Cc1c[nH]c2ccccc12)C(=O)N[C@@H](CC(C)C)C(=O)N1CCC[C@H]1C(=O)N[C@@H](CC(N)=O)C(=O)NCC(=O)N[C@@H](CO)C(=O)NCC(=O)N[C@@H](CO)C(=O)NCC(=O)N[C@@H](CS)C(=O)N[C@@H](C)C(=O)O)[C@@H](C)O)[C@@H](C)CC (stereo partly shown) [Clone 10V1-C7S, XATKTNSKREKTXDNHVTIXRSIPWYTYRWLPN]",Kd,5.6 nM
